From patent US8017775B2, “1-2-dihydroquinoline derivative having glucocorticoid receptor binding activity” (Santen Pharmaceutical Co., Ltd., priority 2005, dated 2011)

target: T1, Recombinant human GR (Homo sapiens, UniProt P04150); assay: GR competitor assay by fluorescence polarization (GR binding ratio); settings: positive control 2 mM dexamethasone, a GR binding ratio of 100% or more is indicated by 100%
T1 construct: purchased Invitrogen P2816
T1 sequence (P04150 1-777): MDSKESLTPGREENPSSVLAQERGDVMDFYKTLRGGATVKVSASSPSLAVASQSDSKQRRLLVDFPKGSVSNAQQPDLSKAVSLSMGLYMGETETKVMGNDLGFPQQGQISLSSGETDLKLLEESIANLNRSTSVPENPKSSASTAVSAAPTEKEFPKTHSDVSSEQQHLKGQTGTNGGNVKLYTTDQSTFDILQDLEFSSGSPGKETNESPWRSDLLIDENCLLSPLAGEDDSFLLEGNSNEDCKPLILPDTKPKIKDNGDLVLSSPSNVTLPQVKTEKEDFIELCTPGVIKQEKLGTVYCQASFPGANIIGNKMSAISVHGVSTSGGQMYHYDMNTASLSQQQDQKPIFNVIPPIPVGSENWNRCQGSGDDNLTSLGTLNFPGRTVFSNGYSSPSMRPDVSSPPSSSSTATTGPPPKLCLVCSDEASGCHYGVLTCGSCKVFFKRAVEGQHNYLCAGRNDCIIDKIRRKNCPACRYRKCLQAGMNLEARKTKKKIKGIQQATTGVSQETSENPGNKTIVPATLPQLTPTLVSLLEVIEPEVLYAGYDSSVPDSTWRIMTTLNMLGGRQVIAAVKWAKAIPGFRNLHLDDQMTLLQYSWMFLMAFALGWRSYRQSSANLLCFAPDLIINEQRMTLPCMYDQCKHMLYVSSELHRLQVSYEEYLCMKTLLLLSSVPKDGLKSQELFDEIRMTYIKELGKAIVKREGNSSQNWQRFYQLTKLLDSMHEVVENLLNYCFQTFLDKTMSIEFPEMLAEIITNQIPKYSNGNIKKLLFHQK
Procedure: 1. Evaluation Test for Binding Activity to Glucocorticoid Receptor (hereinafter referred to as “GR”)
In order to evaluate a binding activity to GR, a receptor competitor assay was carried out by a fluorescence polarization method. In the assay, a GR competitor assay kit (manufactured by Invitrogen, cat No. P2816) was used, and a procedure was carried out according to the protocol attached to the kit. Hereinafter, the specific method will be described.
GR screening buffer: A buffer containing 10 mM potassium phosphate (pH 7.4), 20 mM sodium molybdate (Na2MoO4), 0.1 mM ethylene diamine tetraacetic acid (EDTA), 5 mM dithiothreitol (DTT), 0.1 mM stabilizing peptide and 2% dimethylsulfoxide was prepared.
4×GS1 solution: Fluormone™ GS1, which is a fluorescent glucocorticoid ligand, was diluted with GR screening buffer, whereby a 4 nM solution was prepared.
4×GR solution: Recombinant human GR was diluted with GR screening buffer, whereby a 16 nM solution was prepared.
After a test compound was dissolved in dimethylsulfoxide, the resulting solution was diluted with GR screening buffer, whereby a 20 μM test compound solution was prepared.
1) The test compound solution was added in an amount of 25 μL or 10 μL into each well of a 96-well or 384-well plate, and then, 4×GS1 solution and 4×GR solution were added in an amount of 12.5 μL or 5 μL into each well, respectively.
2) The plate was incubated in a dark place at room temperature for 2 to 4 hours.
3) By using a multimode plate reader, Analyst™ HT (manufactured by LJL Biosystems), fluorescence polarization of each well was measured. As the blank, a well containing GR screening buffer in place of the test compound and 4×GS1 solution was used.
4) The same procedure as that in the above 1) to 3) was carried out except that GR screening buffer was used in place of the test compound solution, and the obtained result was taken as the negative control.
5) The same procedure as that in the above 1) to 3) was carried out except that 2 mM dexamethasone was used in place of the test compound solution, and the obtained result was taken as the positive control.
A GR binding ratio (%) was calculated from the following equation.
GR binding ratio (%)=100×[1−(fluorescence polarization of test compound solution−fluorescence polarization of positive control solution)/(fluorescence polarization of negative control solution−fluorescence polarization of positive control solution)]

| Structure (SMILES) | GR Binding ratio (%) |
| --- | --- |
| COc1cc(O)ccc1-c1ccc2c(c1COc1cc(F)ccc1C)C(C)=CC(C)(C)N2 [Compound 5-3, 5-(5-Fluoro-2-methylphenoxymethyl)-6-(4-hydroxy-2-methoxyphenyl)-2,2,4-trimethyl-1,2-dihydroquinoline] | ≥ 100 |
| COc1ccc(O)cc1-c1ccc2c(c1COc1cc(F)ccc1C)C(C)=CC(C)(C)N2 [Compound 5-4, 5-(5-Fluoro-2-methylphenoxymethyl)-6-(5-hydroxy-2-methoxyphenyl)-2,2,4-trimethyl-1,2-dihydroquinoline] | 95 |
| COc1ccccc1NCc1c(-c2ccc(F)cc2OC)ccc2c1C(C)=CC(C)(C)N2 [Compound 6-20, 6-(4-Fluoro-2-methoxyphenyl)-5-(2-methoxyphenylaminomethyl)-2,2,4-trimethyl-1,2-dihydroquinoline] | ≥ 100 |
| CCOc1ccccc1NCc1c(-c2ccc(F)cc2OC)ccc2c1C(C)=CC(C)(C)N2 [Compound 6-24, 5-(2-Ethoxyphenylaminomethyl)-6-(4-fluoro-2-methoxyphenyl)-2,2,4-trimethyl-1,2-dihydroquinoline] | ≥ 100 |
| COc1ccccc1NCc1c(-c2cc(F)c(F)cc2OC)ccc2c1C(C)=CC(C)(C)N2 [Compound 6-27, 6-(4,5-Difluoro-2-methoxyphenyl)-5-(2-methoxyphenylaminomethyl)-2,2,4-trimethyl-1,2-dihydroquinoline] | ≥ 100 |
| COc1cc(F)ccc1-c1ccc2c(c1CNc1cccc(C)c1)C(C)=CC(C)(C)N2 [Compound 6-36, 6-(4-Fluoro-2-methoxyphenyl)-5-(3-methylphenylaminomethyl)-2,2,4-trimethyl-1,2-dihydroquinoline] | 98 |
| COc1cc(F)ccc1-c1ccc2c(c1CNc1ccccc1C)C(C)=CC(C)(C)N2 [Compound 6-37, 6-(4-Fluoro-2-methoxyphenyl)-5-(2-methylphenylaminomethyl)-2,2,4-trimethyl-1,2-dihydroquinoline] | ≥ 100 |
| CCc1cccc(NCc2c(-c3ccc(F)cc3OC)ccc3c2C(C)=CC(C)(C)N3)c1 [Compound 6-40, 5-(3-Ethylphenylaminomethyl)-6-(4-fluoro-2-methoxyphenyl)-2,2,4-trimethyl-1,2-dihydroquinoline] | 99 |
| COc1ccc(C)cc1NCc1c(-c2ccc(F)cc2OC)ccc2c1C(C)=CC(C)(C)N2 [Compound 6-43, 6-(4-Fluoro-2-methoxyphenyl)-5-(2-methoxy-5-methylphenylaminomethyl)-2,2,4-trimethyl-1,2-dihydroquinoline] | ≥ 100 |
| CCc1ccccc1NCc1c(-c2ccc(F)cc2OC)ccc2c1C(C)=CC(C)(C)N2 [Compound 6-45, 5-(2-Ethylphenylaminomethyl)-6-(4-fluoro-2-methoxyphenyl)-2,2,4-trimethyl-1,2-dihydroquinoline] | 96 |
| COc1cc(F)ccc1-c1ccc2c(c1CNc1ccccc1C(C)C)C(C)=CC(C)(C)N2 [Compound 6-47, 6-(4-Fluoro-2-methoxyphenyl)-5-(2-isopropylphenylaminomethyl)-2,2,4-trimethyl-1,2-dihydroquinoline] | ≥ 100 |
| COc1cc(F)ccc1-c1ccc2c(c1CNc1cc(C)ccc1C)C(C)=CC(C)(C)N2 [Compound 6-53, 5-(2,5-Dimethylphenylaminomethyl)-6-(4-fluoro-2-methoxyphenyl)-2,2,4-trimethyl-1,2-dihydroquinoline] | 95 |
| COc1cc(F)ccc1-c1ccc2c(c1CNc1cc(F)ccc1C)C(C)=CC(C)(C)N2 [Compound 6-57, 6-(4-Fluoro-2-methoxyphenyl)-5-(5-fluoro-2-methylphenylaminomethyl)-2,2,4-trimethyl-1,2-dihydroquinoline] | ≥ 100 |
| COc1cc(F)c(F)cc1-c1ccc2c(c1CNc1ccccc1C)C(C)=CC(C)(C)N2 [Compound 6-59, 6-(4,5-Difluoro-2-methoxyphenyl)-5-(2-methylphenylaminomethyl)-2,2,4-trimethyl-1,2-dihydroquinoline] | 96 |
| COc1ccccc1NCc1c(-c2cc(F)ccc2OC)ccc2c1C(C)=CC(C)(C)N2 [Compound 6-75, 6-(5-Fluoro-2-methoxyphenyl)-5-(2-methoxyphenylaminomethyl)-2,2,4-trimethyl-1,2-dihydroquinoline] | ≥ 100 |
| COc1ccccc1NCc1c(-c2cc(C)ccc2OC)ccc2c1C(C)=CC(C)(C)N2 [Compound 6-76, 6-(2-Methoxy-5-methylphenyl)-5-(2-methoxyphenylaminomethyl)-2,2,4-trimethyl-1,2-dihydroquinoline] | ≥ 100 |
| COc1cc(F)ccc1-c1ccc2c(c1CNc1ccccc1CCO)C(C)=CC(C)(C)N2 [Compound 6-77, 6-(4-Fluoro-2-methoxyphenyl)-5-[2-(2-hydroxyethyl)phenylaminomethyl)-2,2,4-trimethyl-1,2-dihydroquinoline] | ≥ 100 |
| COc1ccc(F)cc1-c1ccc2c(c1CNc1cc(F)ccc1C)C(C)=CC(C)(C)N2 [Compound 6-78, 6-(5-Fluoro-2-methoxyphenyl)-5-(5-fluoro-2-methylphenylaminomethyl)-2,2,4-trimethyl-1,2-dihydroquinoline] | ≥ 100 |
| COc1ccc(C(F)(F)F)cc1-c1ccc2c(c1CNc1cc(F)ccc1C)C(C)=CC(C)(C)N2 [Compound 6-79, 5-(5-Fluoro-2-methylphenylaminomethyl)-6-(2-methoxy-5-trifluoromethylphenyl)-2,2,4-trimethyl-1,2-dihydroquinoline] | ≥ 100 |
| COc1cc(F)ccc1-c1ccc2c(c1COC(=O)c1sccc1Cl)C(C)=CC(C)(C)N2 [Compound 12-17, 5-[(3-Chlorothiophen-2-yl)carbonyloxymethyl]-6-(4-fluoro-2-methoxyphenyl)-2,2,4-trimethyl-1,2-dihydroquinoline] | ≥ 100 |
| COc1cc(F)ccc1-c1ccc2c(c1COC(=O)c1ccc(C)s1)C(C)=CC(C)(C)N2 [Compound 12-19, 6-(4-Fluoro-2-methoxyphenyl)-5-[(5-methylthiophen-2-yl)carbonyloxymethyl]-2,2,4-trimethyl-1,2-dihydroquinoline] | ≥ 100 |
| CCc1ccc(C(=O)OCc2c(-c3ccc(F)cc3OC)ccc3c2C(C)=CC(C)(C)N3)s1 [Compound 12-20, 5-[(5-Ethylthiophen-2-yl)carbonyloxymethyl]-6-(4-fluoro-2-methoxyphenyl)-2,2,4-trimethyl-1,2-dihydroquinoline] | ≥ 100 |
| COc1cc(F)ccc1-c1ccc2c(c1COC(=O)c1cc(C)cs1)C(C)=CC(C)(C)N2 [Compound 12-21, 6-(4-Fluoro-2-methoxyphenyl)-5-[(4-methylthiophen-2-yl)carbonyloxymethyl]-2,2,4-trimethyl-1,2-dihydroquinoline] | ≥ 100 |
| COc1cc(F)ccc1-c1ccc2c(c1COC(=O)c1ccc(Cl)s1)C(C)=CC(C)(C)N2 [Compound 12-22, 5-[(5-Chlorothiophen-2-yl)carbonyloxymethyl]-6-(4-fluoro-2-methoxyphenyl)-2,2,4-trimethyl-1,2-dihydroquinoline] | ≥ 100 |
| COc1cc(F)ccc1-c1ccc2c(c1COC(=O)c1ccc(Br)s1)C(C)=CC(C)(C)N2 [Compound 12-25, 5-[(5-Bromothiophen-2-yl)carbonyloxymethyl]-6-(4-fluoro-2-methoxyphenyl)-2,2,4-trimethyl-1,2-dihydroquinoline] | ≥ 100 |
